Results reported in patent US12600728B2, “Interleukin-17 inhibitors” (priority 2020, dated 2026).
Read-outs that look alike come from different tables or passages of the source.

Columns and labels:
[1] = target: biotinylated human IL-17A / AF647-labeled human IL-17RA (Homo sapiens, UniProt Q16552); assay: Human IL-17A×IL-17RA TR-FRET assay; type: binding
How it was run: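 Compounds tested in duplicate at each concentration; neutral controls contain all components with DMSO in place of compound.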

[2] = target: recombinant human IL-17AA (Homo sapiens, UniProt Q16552); assay: IL-6 release from NHDF cells, IL-17AA plus TNF-α stimulation; type: cell-based; conditions: 24 hours, IL-6 by ELISA
How it was run: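 IL-17-specific IL-6 release from NHDF cells adhered overnight; compounds pre-incubated 30 min at room temperature with human IL-17AA plus TNF-α, then 24 h on cells at 37° C. Final DMSO 0.1% or plasma 20%; IL-6 by ELISA (450 nm). TNF-α-only IL-6 subtracted before IC50 fit.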

[3] = TR-FRET, biotinylated human IL-17A 5 nM, AF647-labeled human IL-17RA 30 nM, read-out: IL17AA FRET/ IL17Rawt IC50
[4] = NHDF cells, IL-17AA 30 pM plus TNF-α 6 pM, read-out: IL17AA + TNF IC50 IL-6
[5] = IL17AA FRET/ IL17Rawt IC50, TR-FRET, 5 nM IL-17A, 30 nM IL-17RA
[6] = NHDF cells, IL-17AA 30 pM + TNF-α 6 pM, read-out: IL17AA + TNF IC50 IL-6
[7] = TR-FRET, 5 nM IL-17A, 30 nM IL-17RA, read-out: IL17AA FRET/ IL17Rawt IC50
[8] = IL17AA + TNF IC50 IL-6, NHDF cells, IL-17AA 30 pM + TNF-α 6 pM

biotinylated human IL-17A / AF647-labeled human IL-17RA, sequence (Q16552 24-155): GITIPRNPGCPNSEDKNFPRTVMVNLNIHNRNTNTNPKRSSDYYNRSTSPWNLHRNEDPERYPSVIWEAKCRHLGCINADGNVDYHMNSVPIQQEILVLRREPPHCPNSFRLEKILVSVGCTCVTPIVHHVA
recombinant human IL-17AA, sequence (Q16552 24-155): as above

Row | IC50 [2, 6] [nM] | IC50 [1, 7] [nM] | Compound | other results
1 | 131 | 125 | Cc1cc[n+]([O-])c(C)c1-c1ccc(NC(=O)[C@@H](NC(=O)c2ccnn2C)C2CCCCCC2)nc1 [Example 148, (S)-6′-(2-cycloheptyl-2-(1-methyl-1H-pyrazole-5-carboxamido)acetamido)-2,4-dimethyl-[3,3′-bipyridine] 1-oxide] | –
2 | 59 | 118 | Cc1cc[n+]([O-])c(C)c1-c1ccc(NC(=O)[C@@H](NC(=O)c2ccc3n2CCN(C)C3)C2CCCCCC2)nc1 [Example 149, (S)-6′-(2-cycloheptyl-2-(2-methyl-1,2,3,4-tetrahydropyrrolo[1,2-a]pyrazine-6-carboxamido)acetamido)-2,4-dimethyl-[3,3′-bipyridine] 1-oxide] | –
3 | 51.5 | 110 | Cc1cc[n+]([O-])c(C)c1-c1ccc(NC(=O)C(NC(=O)c2ccnn2C)C2CCCCC(F)(F)C2)cc1 (stereo not drawn) [Example 156, 3-(4-(2-(3,3-difluorocycloheptyl)-2-(1-methyl-1H-pyrazole-5-carboxamido)acetamido)phenyl)-2,4-dimethylpyridine 1-oxide] | –
4 | 15.5 | < 6.1 | Cc1c(-c2ccc(NC(=O)C(NC(=O)c3ccnn3C(C)C)C3CCCC(F)(F)C3)cc2)c(Cl)cc[n+]1[O-] (stereo not drawn) [Example 158, 4-chloro-3-(4-(2-(3,3-difluorocyclohexyl)-2-(1-isopropyl-1H-pyrazole-5-carboxamido)acetamido)phenyl)-2-methylpyridine 1-oxide] | –
5 | 20.5 | 130 | Cc1cc[n+]([O-])c(C)c1-c1ccc(NC(=O)C(NC(=O)c2ccnn2C(C)C)C2CCCC(F)(F)C2)cc1 (stereo not drawn) [Example 161, 3-(4-(2-(3,3-difluorocyclohexyl)-2-(1-isopropyl-1H-pyrazole-5-carboxamido)acetamido)phenyl)-2,4-dimethylpyridine 1-oxide] | –
6 | 44 | 186 | Cc1cc[n+]([O-])c(C)c1-c1ccc(NC(=O)[C@@H](NC(=O)c2conc2C)C2CCC(F)(F)CC2)cc1 [Example 162, (S)-3-(4-(2-(4,4-difluorocyclohexyl)-2-(3-methylisoxazole-4-carboxamido)acetamido)phenyl)-2,4-dimethylpyridine 1-oxide] | –
7 | 45 | 199 | Cc1c(-c2ccc(NC(=O)[C@@H](NC(=O)c3ccc4n3CCN(C)C4)C3CCC(F)(F)CC3)cc2F)c(Cl)cc[n+]1[O-] [Example 164, 4-chloro-3-(4-((S)-2-(4,4-difluorocyclohexyl)-2-(2-methyl-1,2,3,4-tetrahydropyrrolo[1,2-a]pyrazine-6-carboxamido)acetamido)-2-fluorophenyl)-2-methylpyridine 1-oxide] | –
8 | 339 | 391 | Cc1cc(-c2ccc(NC(=O)[C@@H](NC(=O)c3conc3C)C3CCC(F)(F)CC3)cc2)c(C)[n+]([O-])c1 [Example 169, (S)-3-(4-(2-(4,4-difluorocyclohexyl)-2-(3-methylisoxazole-4-carboxamido)acetamido)phenyl)-2,5-dimethylpyridine 1-oxide] | –
9 | 531 | 596 | Cc1nocc1C(=O)N[C@H](C(=O)Nc1ccc(-c2cc(Cl)c[n+]([O-])c2C)c(F)c1)C1CCC(F)(F)CC1 [Example 172, (S)-5-chloro-3-(4-(2-(4,4-difluorocyclohexyl)-2-(3-methylisoxazole-4-carboxamido)acetamido)-2-fluorophenyl)-2-methylpyridine 1-oxide] | –

Further lines, the compound ahead of its results:

Row | Compound | IC50 [2, 6] [nM] | IC50 [1, 7] [nM] | other results
10 | Cc1c(-c2ccc(NC(=O)[C@@H](NC(=O)c3ccc4n3CCN(C3COC3)C4)C3CCCCC3)cc2F)c(Cl)cc[n+]1[O-] [Example 133, 4-chloro-3-(4-((S)-2-cyclohexyl-2-(2-(oxetan-3-yl)-1,2,3,4-tetrahydropyrrolo[1,2-a]pyrazine-6-carboxamido)acetamido)-2-fluorophenyl)-2-methylpyridine 1-oxide] | – | – | IC50 [1, 3]: 99 nM; IC50 [2, 4]: 17 nM
11 | CC(=O)N1CCn2c(ccc2C(=O)N[C@H](C(=O)Nc2ccc(-c3c(Cl)cc[n+]([O-])c3C)c(F)c2)C2CCCCCC2)C1 [Example 134, 3-(4-((S)-2-(2-acetyl-1,2,3,4-tetrahydropyrrolo[1,2-a]pyrazine-6-carboxamido)-2-cycloheptylacetamido)-2-fluorophenyl)-4-chloro-2-methylpyridine 1-oxide] | – | – | IC50 [1, 3]: 72.8 nM; IC50 [2, 4]: 7 nM
12 | Cc1cc[n+]([O-])c(C)c1-c1ccc(NC(=O)C(NC(=O)c2ccnn2C)C2CCCC(F)(F)C2)cc1 (stereo not drawn) [Example 147, 3-(4-(2-(3,3-difluorocyclohexyl)-2-(1-methyl-1H-pyrazole-5-carboxamido)acetamido)phenyl)-2,4-dimethylpyridine 1-oxide] | 193 | – | IC50 [1, 5]: 513 nM
13 | Cc1cc[n+]([O-])c(C)c1-c1ccc(NC(=O)[C@@H](NC(=O)c2ccc3n2CCN(C)C3)C2CCC(F)(F)CC2)cc1 [Example 151, (S)-3-(4-(2-(4,4-difluorocyclohexyl)-2-(2-methyl-1,2,3,4-tetrahydropyrrolo[1,2-a]pyrazine-6-carboxamido)acetamido)phenyl)-2,4-dimethylpyridine 1-oxide] | 57 | 260 | –
14 | Cc1cc[n+]([O-])c(C)c1-c1ccc(NC(=O)[C@@H](NC(=O)c2cn[nH]c2C(C)C)C2CCCCC2)cc1 [Example 157, (S)-3-(4-(2-cyclohexyl-2-(5-isopropyl-1H-pyrazole-4-carboxamido)acetamido)phenyl)-2,4-dimethylpyridine 1-oxide] | 105 | 170 | –
15 | CCn1nccc1C(=O)N[C@H](C(=O)Nc1ccc(-c2c(C)cc[n+]([O-])c2C)cc1)C1CCC(F)(F)CC1 [Example 159, (S)-3-(4-(2-(4,4-difluorocyclohexyl)-2-(1-ethyl-1H-pyrazole-5-carboxamido)acetamido)phenyl)-2,4-dimethylpyridine 1-oxide] | – | – | IC50 [1, 5]: 100 nM; IC50 [2, 8]: 31 nM
16 | Cc1c(-c2ccc(NC(=O)C(NC(=O)c3ccnn3C)C3CCCC(F)(F)C3)cc2)c(Cl)cc[n+]1[O-] (stereo not drawn) [Example 160, 4-chloro-3-(4-(2-(3,3-difluorocyclohexyl)-2-(1-methyl-1H-pyrazole-5-carboxamido)acetamido)phenyl)-2-methylpyridine 1-oxide] | – | – | IC50 [1, 5]: 89.5 nM; IC50 [2, 8]: 52.3 nM
17 | COCc1nocc1C(=O)N[C@H](C(=O)Nc1ccc(-c2c(Cl)cc[n+]([O-])c2C)c(F)c1)C1CCC(F)(F)CC1 [Example 163, 4-chloro-3-(4-((S)-2-(4,4-difluorocyclohexyl)-2-(3-(methoxymethyl)isoxazole-4-carboxamido)acetamido)-2-fluorophenyl)-2-methylpyridine 1-oxide] | 68 | 191 | –
18 | Cc1cc[n+]([O-])c(C)c1-c1ccc(NC(=O)[C@@H](NC(=O)c2cnn(C)c2C)C2CCCCC2)cc1 [Example 167, (S)-3-(4-(2-cyclohexyl-2-(1,5-dimethyl-1H-pyrazole-4-carboxamido)acetamido)phenyl)-2,4-dimethylpyridine 1-oxide] | 210 | 155 | –
19 | CCn1nccc1C(=O)N[C@H](C(=O)Nc1ccc(-c2cc(Cl)c[n+]([O-])c2C)cc1)C1CCC(F)(F)CC1 [Example 170, (S)-5-chloro-3-(4-(2-(4,4-difluorocyclohexyl)-2-(1-ethyl-1H-pyrazole-5-carboxamido)acetamido)phenyl)-2-methylpyridine 1-oxide] | – | – | IC50 [1, 5]: 402 nM; IC50 [2, 8]: 231 nM
20 | Cc1cc(-c2ccc(NC(=O)[C@@H](NC(=O)c3ccnn3C)C3CCC(F)(F)CC3)cc2)c(C)[n+]([O-])c1 [Example 171, (S)-3-(4-(2-(4,4-difluorocyclohexyl)-2-(1-methyl-1H-pyrazole-5-carboxamido)acetamido)phenyl)-2,5-dimethylpyridine 1-oxide] | – | – | IC50 [1, 5]: 465 nM; IC50 [2, 8]: 398 nM
21 | Cc1nocc1C(=O)N[C@H](C(=O)Nc1ccc(-c2cc(Cl)c[n+]([O-])c2C)cc1)C1CCC(F)(F)CC1 [Example 173, (S)-5-chloro-3-(4-(2-(4,4-difluorocyclohexyl)-2-(3-methylisoxazole-4-carboxamido)acetamido)phenyl)-2-methylpyridine 1-oxide] | 1680 | 659 | –
22 | Cc1c(-c2ccc(NC(=O)[C@@H](NC(=O)c3ccnn3C)C3CCC(F)(F)CC3)cc2F)cc(Cl)c[n+]1[O-] [Example 174, (S)-5-chloro-3-(4-(2-(4,4-difluorocyclohexyl)-2-(1-methyl-1H-pyrazole-5-carboxamido)acetamido)-2-fluorophenyl)-2-methylpyridine 1-oxide] | – | – | IC50 [1, 5]: 683 nM; IC50 [2, 8]: 286 nM
23 | Cc1c(-c2ccc(NC(=O)[C@@H](NC(=O)c3ccnn3C)C3CCCCC3)cc2)cc(Cl)c[n+]1[O-] [Example 175, (S)-5-chloro-3-(4-(2-cyclohexyl-2-(1-methyl-1H-pyrazole-5-carboxamido)acetamido)phenyl)-2-methylpyridine 1-oxide] | – | – | IC50 [1, 5]: 846 nM; IC50 [2, 8]: 130 nM
24 | Cc1cc[n+]([O-])c(C)c1-c1ccc(NC(=O)C(NC(=O)c2ccc3n2CCNC3)C2CCC(C(F)(F)F)CC2)cc1 [Example 178, 2,4-dimethyl-3-(4-((S)-2-(1,2,3,4-tetrahydropyrrolo[1,2-a]pyrazine-6-carboxamido)-2-((1r,4S)-4-(trifluoromethyl)cyclohexyl)acetamido)phenyl)pyridine 1-oxide] | 30 | 8.96 | –
